In the supplement of paper PMC11208160:

Experiment: recombinant UMI read abundance after kanamycin selection (control-corrected) (log10(CPM+1)); higher = more efficient recombination; extreme values may be limits of the assay; sequences stand for … in AGTGCAGAGAAAATCGGCCAGTTTTCTCTGCCTGCAGTCCGCATGCCGTGGGACCCCTTGGGTTCTAACCTGTTGCCTAGATTTATGCAGCGGACTGCCTTTCTCCCAAAGTGATAAACCGG…AGGTTGGTTTCACT; site = the 11-nt donor
In short: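 Values, expressed as log10(CPM+1), derive from recombinant UMI counts converted to CPM, averaged across replicates and scaled by control-derived factors. Plating was with IPTG (0.07 mM) plus kanamycin or unselected, two replicates each. The screen pooled donor and donor-binding-loop pairs for the IS621 bridge recombinase in Escherichia coli.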
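Also: IS621 bridge recombinase in Escherichia coli cells against a fixed T5 target plasmid.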

Sequence	recombinant UMI read abundance (log10)
TTCGCGGCATGGACCGGTTTTCCCGGTAATCCGTATTTGCT (site TTTGCGGCTAG)	0.0106
TTCGCTGCATGGACCGGTTTTCCCGGTAATCCGTATTTGTG (site TTAGCTGCTCA)	0.018
TTCGCTGCATGGACCGGTTTTCCCGGTAATCCGTATTTGTG (site TTCGCTGCTCA)	0.0258
TTCGCTGCATGGACCGGTTTTCCCGGTAATCCGTATTTGTG (site TTGGCTGCTCA)	0.0131
TTCGCTGCATGGACCGGTTTTCCCGGTAATCCGTATTTGTG (site TTTGCTGCTCA)	0.00847
TTCGTAACATGGACCGGTTTTCCCGGTAATCCGTATTTGAA (site GCTCGGCCTCC)	0.019
TTCTAGACATGGACCGGTTTTCCCGGTAATCCGTATTTGTT (site TTCTAGACTAA)	0.0133
TTCTATACATGGACCGGTTTTCCCGGTAATCCGTATTTGAC (site ATCTATACTGT)	0
TTCTATACATGGACCGGTTTTCCCGGTAATCCGTATTTGAC (site CTCTATACTGT)	0
TTCTATACATGGACCGGTTTTCCCGGTAATCCGTATTTGAC (site GTCTATACTGT)	0
TTCTATACATGGACCGGTTTTCCCGGTAATCCGTATTTGAC (site TTCTATACTGT)	0.00704
TTCTCCACATGGACCGGTTTTCCCGGTAATCCGTATTTGGA (site TTCTCCACTTC)	0.00322
TTCTCGACATGGACCGGTTTTCCCGGTAATCCGTATTTGTC (site TTCTCGACTGA)	0
TTCTTAGCATGGACCGGTTTTCCCGGTAATCCGTATTTGTT (site TTCTTAGCTAA)	0.0119
TTGACCACATGGACCGGTTTTCCCGGTAATCCGTATTTGCC (site TTGACCACTGG)	1.79
TTGAGCGCATGGACCGGTTTTCCCGGTAATCCGTATTTGCC (site TTGAGCGCTGG)	1.9
TTGAGGCCATGGACCGGTTTTCCCGGTAATCCGTATTTGAC (site TTGAGGCCTGT)	0
TTGATAACATGGACCGGTTTTCCCGGTAATCCGTATTTGGG (site TTGATAACTCC)	0.00616
TTGCATACATGGACCGGTTTTCCCGGTAATCCGTATTTGGA (site TTGCATACTTC)	0.121

Sequence	recombinant UMI read abundance (log10)
TTGCGCACATGGACCGGTTTTCCCGGTAATCCGTATTTGTG (site TTGCGCACTCA)	0.0258
TTGGAGGCATGGACCGGTTTTCCCGGTAATCCGTATTTGTG (site ATGGAGGCTCA)	0.342
TTGGAGGCATGGACCGGTTTTCCCGGTAATCCGTATTTGTG (site CTGGAGGCTCA)	0.329
TTGGAGGCATGGACCGGTTTTCCCGGTAATCCGTATTTGTG (site GTGGAGGCTCA)	0.0131
TTGGAGGCATGGACCGGTTTTCCCGGTAATCCGTATTTGTG (site TTGGAGGCTCA)	0.791
TTGGGGCCATGGACCGGTTTTCCCGGTAATCCGTATTTGAA (site TTGGGGCCTTT)	0.00375
TTGGTCACATGGACCGGTTTTCCCGGTAATCCGTATTTGAA (site TTGGTCACTTT)	0.29
TTGGTCCCATGGACCGGTTTTCCCGGTAATCCGTATTTGAA (site TTGGTCCCTTT)	0.00683
TTGGTGGCATGGACCGGTTTTCCCGGTAATCCGTATTTGGC (site TTGGTGGCTGC)	1.84
TTGTTGCCATGGACCGGTTTTCCCGGTAATCCGTATTTGGT (site TTGTTGCCTAC)	0.0353
TTGTTTGCATGGACCGGTTTTCCCGGTAATCCGTATTTGAG (site TTGTTTGCTCT)	0.442
TTTACACCATGGACCGGTTTTCCCGGTAATCCGTATTTGAC (site TATACACCTGT)	0
TTTACACCATGGACCGGTTTTCCCGGTAATCCGTATTTGAC (site TCTACACCTGT)	0
TTTACACCATGGACCGGTTTTCCCGGTAATCCGTATTTGAC (site TGTACACCTGT)	0
TTTACACCATGGACCGGTTTTCCCGGTAATCCGTATTTGAC (site TTTACACCTGT)	0
TTTACCCCATGGACCGGTTTTCCCGGTAATCCGTATTTGCT (site TTTACCCCTAG)	0.0114
TTTACGGCATGGACCGGTTTTCCCGGTAATCCGTATTTGCT (site TTTACGGCTAG)	0.234
TTTACGGCATGGACCGGTTTTCCCGGTAATCCGTATTTGCT (site TTTCCGGCTAG)	0.00939
TTTACGGCATGGACCGGTTTTCCCGGTAATCCGTATTTGCT (site TTTGCGGCTAG)	0.00519

Sequence	recombinant UMI read abundance (log10)
TTTACGGCATGGACCGGTTTTCCCGGTAATCCGTATTTGCT (site TTTTCGGCTAG)	0.0523
TTTAGAACATGGACCGGTTTTCCCGGTAATCCGTATTTGGC (site ATTAGAACTGC)	0.0159
TTTAGAACATGGACCGGTTTTCCCGGTAATCCGTATTTGGC (site CTTAGAACTGC)	0
TTTAGAACATGGACCGGTTTTCCCGGTAATCCGTATTTGGC (site GTTAGAACTGC)	0
TTTAGAACATGGACCGGTTTTCCCGGTAATCCGTATTTGGC (site TTTAGAACTGC)	0
TTTAGAGCATGGACCGGTTTTCCCGGTAATCCGTATTTGTT (site TTTAGAGCTAA)	0.975
TTTAGCTCATGGACCGGTTTTCCCGGTAATCCGTATTTGTT (site TTTAGCTCTAA)	0.0116
TTTCAAACATGGACCGGTTTTCCCGGTAATCCGTATTTGTG (site TTTCAAACTCA)	0.0135
TTTCACCCATGGACCGGTTTTCCCGGTAATCCGTATTTGGG (site TTTCACCCTCC)	0.00832
TTTCACTCATGGACCGGTTTTCCCGGTAATCCGTATTTGGT (site TTTCACTCTAC)	0.00742
TTTCCGACATGGACCGGTTTTCCCGGTAATCCGTATTTGTA (site TTTCCGACTTA)	0.018
TTTCTACCATGGACCGGTTTTCCCGGTAATCCGTATTTGGG (site TTTCTACCTCC)	0.00805
TTTCTAGCATGGACCGGTTTTCCCGGTAATCCGTATTTGTA (site TTTCTAGCTTA)	0.542
TTTCTCTCATGGACCGGTTTTCCCGGTAATCCGTATTTGTA (site ATTCTCTCTTA)	0.353
TTTCTCTCATGGACCGGTTTTCCCGGTAATCCGTATTTGTA (site CTTCTCTCTTA)	0.301
TTTCTCTCATGGACCGGTTTTCCCGGTAATCCGTATTTGTA (site GTTCTCTCTTA)	0.297
TTTCTCTCATGGACCGGTTTTCCCGGTAATCCGTATTTGTA (site TTTCTCTCTTA)	0.571
TTTCTGACATGGACCGGTTTTCCCGGTAATCCGTATTTGCC (site TTTCTGACTGG)	0
TTTGAGACATGGACCGGTTTTCCCGGTAATCCGTATTTGGA (site TTTGAGACTTC)	0.832
